Assay results reported in US11952369B2 (Kadmon Corporation, LLC, priority 2022, dated 2024).
“And” between values parts separate entries of the source, which are not always exact repeats. Equal entries are not always repeated. Structures can show the parent of a compound that is named as a salt. Marks after values point to notes of the source that are not given here.

Assays:
ROCK2 = biological target: T1, ROCK2 (Rattus norvegicus, UniProt Q62868); assay: Inhibition of ROCK2 enzymatic activity, immunoabsorbed full length enzyme, S6 kinase substrate peptide, [γ33P]ATP; assay type: biochemical; conditions: for Ki: ROCK2
T1 construct: Full length rat ROCK1 and ROCK2 proteins were isolated from various tumor cell lines or tissues by immunoabsorption; endogenous in cells
T1 sequence (Q62868 whole entry): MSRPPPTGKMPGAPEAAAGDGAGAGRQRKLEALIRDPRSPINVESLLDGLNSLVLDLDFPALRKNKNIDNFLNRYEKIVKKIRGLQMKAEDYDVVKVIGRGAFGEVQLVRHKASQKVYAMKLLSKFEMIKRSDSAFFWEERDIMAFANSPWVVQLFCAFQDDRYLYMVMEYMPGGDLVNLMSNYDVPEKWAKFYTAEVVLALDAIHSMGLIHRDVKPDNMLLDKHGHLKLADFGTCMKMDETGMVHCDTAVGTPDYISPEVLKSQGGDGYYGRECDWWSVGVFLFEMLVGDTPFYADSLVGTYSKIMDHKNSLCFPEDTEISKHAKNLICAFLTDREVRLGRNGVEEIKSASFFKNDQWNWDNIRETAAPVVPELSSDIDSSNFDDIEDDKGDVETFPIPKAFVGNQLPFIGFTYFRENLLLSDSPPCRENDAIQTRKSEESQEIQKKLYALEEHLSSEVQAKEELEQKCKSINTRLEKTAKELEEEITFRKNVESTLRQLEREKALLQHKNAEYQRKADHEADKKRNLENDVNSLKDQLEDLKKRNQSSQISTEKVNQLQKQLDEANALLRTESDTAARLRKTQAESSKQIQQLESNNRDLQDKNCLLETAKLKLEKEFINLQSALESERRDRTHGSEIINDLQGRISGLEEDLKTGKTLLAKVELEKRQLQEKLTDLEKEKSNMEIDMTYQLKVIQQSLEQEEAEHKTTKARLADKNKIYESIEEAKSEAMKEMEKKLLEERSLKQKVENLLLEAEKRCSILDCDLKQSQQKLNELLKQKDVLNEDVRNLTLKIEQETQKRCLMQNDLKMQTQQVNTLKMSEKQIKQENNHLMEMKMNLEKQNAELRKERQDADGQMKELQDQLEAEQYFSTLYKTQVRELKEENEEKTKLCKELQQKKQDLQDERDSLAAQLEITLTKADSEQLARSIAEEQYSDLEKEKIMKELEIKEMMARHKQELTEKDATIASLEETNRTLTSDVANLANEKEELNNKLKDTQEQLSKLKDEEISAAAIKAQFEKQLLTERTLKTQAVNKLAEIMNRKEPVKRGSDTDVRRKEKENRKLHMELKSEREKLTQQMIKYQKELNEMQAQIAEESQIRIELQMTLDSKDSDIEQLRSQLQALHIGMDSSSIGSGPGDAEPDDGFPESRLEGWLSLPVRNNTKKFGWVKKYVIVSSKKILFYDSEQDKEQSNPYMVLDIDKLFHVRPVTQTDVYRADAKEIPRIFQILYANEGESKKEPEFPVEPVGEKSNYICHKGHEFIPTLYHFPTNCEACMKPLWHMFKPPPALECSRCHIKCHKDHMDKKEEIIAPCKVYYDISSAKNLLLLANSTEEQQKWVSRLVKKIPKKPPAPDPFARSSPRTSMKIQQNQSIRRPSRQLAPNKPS
Description: Full length rat ROCK1 and ROCK2 proteins were isolated from various tumor cell lines or tissues by immunoabsorption to 24-well microtiter plates pre-coated with antibodies specific for each isozyme. Reactions were initiated by the addition of S6 kinase substrate peptide, [γ33P]ATP, and study drug, and incubated at 37° C. for 20 minutes. Reactions were terminated by addition of phosphoric acid and the radioactivity was quantified using standard methods.

Solubility = assay type: physicochemical; conditions: water
patients with cGVHD = conditions: cited from earlier work
[1] = Phase 1 study part 2: mass balance recovery of total radioactivity in excreta; assay type: in vivo, human; conditions: oral 200-mg [14C]-belumosudil capsule
Description: (§1) For the mass balance and metabolic profiling study (part 2), following at least a 7-day washout from part 1, subjects received a single oral dose of a 200 mg [^14C]-belumosudil capsule containing NMT 9.8 MBq [^14C]. This level of radioactivity was selected based on human dosimetry calculations conducted by Public Health England that determined a radioactive oral dose of NMT 9.8 MBq would be necessary to permit adequate metabolite profiling of key samples. Taking the part 1 microtracer dose into account, the total committed effective dose subjects received in the study was 3 mSv, which falls within the International Commission on Radiological Protection Guidelines for Category IIb studies. Additionally, to remain within the limit for radioactive dose approved by the UK Administration of Radioactive Substances Advisory Committee, the target-specific activity of [^14C]-belumosudil was set to 90% of the threshold radioactive dosing limit.
Urine for total radioactivity and metabolite profiling and identification was collected before dosing (the first void of the day) and pooled from 0 to 6, 6 to 12, and 12 to 24 hours after dosing followed by daily (24-hour) collections until day 8/discharge. Urine samples were pooled per interval and stored at 2 to 8° C. pending analysis. Feces were collected from admission until before dosing and then daily (24-hour) collections until discharge. Fecal samples were pooled per time interval and stored at −20° C. pending analysis.
(§2) Total radioactivity whole-blood, plasma, and urine samples were prepared for LSC by mixing with scintillation fluid. In addition, aliquots of whole blood were solubilized with AquiGest tissue solubilization fluid and plasma samples were mixed with 10 mM of phosphate-buffered saline. Urine and fecal samples were pooled per subject by time interval before analysis. In addition, fecal samples were combusted using an automatic sample oxidizer prior to LSC. Radioactivity in all samples was measured using an LSC with automatic external standard quench correction (2300TR, 2900TR, and 3100TR Tri-Carb, Scintillation Counters; PerkinElmer, Waltham, Massachusetts), with samples counted for 4 minutes. The LLOQ was considered to be twice the background value for samples of the same type (1.39 [urine], 23.9 [feces], 35.5 [whole blood], and 30.9 [plasma] ng equivalents [free base]/g or mL).

[2] = Phase 1 study part 1: absolute bioavailability, oral 200-mg tablet plus [14C]-belumosudil IV microtracer, plasma PK; assay type: in vivo, human; conditions: 100 μg IV; for half-life: iv
Description: (§3) This was a single-center, nonrandomized, open-label, 2-part study in 5 healthy male subjects aged 30 to 65 years. All oral doses were administered following an overnight fast and a standard breakfast on the day of dosing.
(timed to occur at the expected maximum concentration [Cmax]). To determine absolute bioavailability, a microtracer dose was chosen as it negates the need for an IV formulation with good stability. Additionally, due to use of a very low dose, further nonclinical studies such as local tolerance and general toxicology studies were not warranted.
Blood samples for IV [^14C]-belumosudil PK analysis and total radioactivity were collected at −0.25, −0.16, −0.08, 0, 0.08, 0.16, 0.25, 0.5, 0.75, 1, 1.5, 2, 3, 4, 5, 6, 8, 10, 12, 22, 34, and 46 hours after the end of infusion (EOI). All samples were processed to plasma within 30 minutes of collection by centrifugation at 2000 g for 10 minutes at 4° C., and
Total [^14C]-belumosudil concentrations were determined by accelerator mass spectrometry (AMS). […] Selected samples were diluted with commercial plasma to ensure that concentrations would fall within the acceptable range for AMS analysis. The samples were converted to graphite through combustion to CO2 followed by reduction to graphite. The graphite targets were then analyzed by AMS (LLOQ of 0.00489, 0.00557, 0.00485, 0.00402, and 0.00372 ng equiv/mL for individual subjects). All ^14C data was background-corrected based on predose [^14C]-belumosudil concentrations.
Eluate fractions corresponding to [^14C]-belumosudil were collected before AMS analysis (LLOQ of 1.55 pg equiv/mL).
(§4) PK parameter estimates were used to calculate absolute bioavailability and metabolite-to-parent ratio.

[3] = Phase 1 study part 2: plasma and whole-blood PK after oral 200 mg [14C]-belumosudil capsule; assay type: in vivo, human; conditions: for F, AUCinf (bioavailability) / F, Cmax (bioavailability): oral [14C]-belumosudil 200-mg capsule vs IV [14C]-belumosudil dose of part 1; for half-life: 200 mg
Description: as §3, §1
Whole-blood samples for total radioactivity and plasma samples for metabolite pro-filing and identification were collected before dosing and 1, 4, 8, 12, 24, 48, 72, 96, 120, 144, and 168 hours after dosing. […] Whole-blood samples for total radioactivity were collected into tripotassium ethylene-diaminetetraacetic acid tubes and stored at 2 to 8° C. pending analysis. […] (metabolite profiling samples).
as §2, §4

[4] = arithmetic mean (standard deviation), Part 1, [14C]-belumosudil
[5] = arithmetic mean (standard deviation), Part 1, total radioactivity
[6] = geometric mean (geometric CV %), Part 1, [14C]-belumosudil
[7] = geometric mean (geometric CV %), Part 1, total radioactivity
[8] = arithmetic mean (standard deviation), Part 2, [14C]-belumosudil 200-mg capsule
[9] = arithmetic mean (standard deviation), Part 2
[10] = arithmetic mean (standard deviation), Part 2, total radioactivity, 200-mg capsule
[11] = geometric mean (geometric CV %), Part 2, [14C]-belumosudil 200-mg capsule
[12] = geometric mean (geometric CV %), Part 2
[13] = geometric mean (geometric CV %), Part 2, total radioactivity, 200-mg capsule

CC(N)C1CCC(C(=O)Nc2ccncc2)CC1 (centres unmarked) [Y-27362]
Ki (ROCK2): 0.045 ± 0.005 µM

CC(C)NC(=O)COc1cccc(-c2nc(Nc3ccc4[nH]ncc4c3)c3ccccc3n2)c1 [Belumosudil mesylate, 2-{3-[4-(1H-indazol-5-ylamino)-2-quinazolinyl]phenoxy}-N-(propan-2-yl) acetamide methanesulfonate (1:1)]
solubility in water (Solubility): practically insoluble in water

C=CC(=O)N1CCC[C@@H](n2nc(-c3ccc(Oc4ccccc4)cc3)c3c(N)ncnc32)C1 [ibrutinib]
discontinuation rate because of treatment-emergent adverse events (TEAEs) (patients with cGVHD): 43%

O=C(O)COc1cccc(-c2nc(Nc3ccc4[nH]ncc4c3)c3ccccc3n2)c1 [KD025m2, 2-(3-(4-(1H-indazol-5-ylamino)quinazolin-2-yl)phenoxy)acetic acid]
Ki (ROCK2): 0.338 ± 0.055 µM | inhibition of ROCK2 (Ki) relative to belumosudil (ROCK2; fold lower inhibition than belumosudil): approximately 6 fold

CC(C)NC(=O)COc1cccc(-[14c]2nc(Nc3ccc4[nH]ncc4c3)c3ccccc3n2)c1 [[^14C]-Belumosudil]
radioactivity recovered in excreta [1]: 88.5% | radiolabeled dose recovered in urine [1]: < 5% | total radioactivity recovered in feces [1]: 84.6% and 85% | total radioactivity recovered in feces within the first 24 hours after dosing [1]: ≈ 27.4% | total radioactivity recovered in urine within the first 24 hours after dosing [1]: 3.8% | AUCextrap [2, 4]: 0.63 (0.46) % | AUCinf [2, 4]: 6720 (2220) ng or ng equiv × h/mL | AUClast [2, 4]: 6680 (2220) ng or ng equiv × h/mL | Clearanance [2, 4]: 264 (64.3) mL/min | Cmax [2, 4]: 4530 (830) ng or ng equiv/mL | Volume [2, 4]: 138 (59.8) L | Volume, ss [2, 4]: 54.1 (10.7) L | AUCextrap [2, 5]: 8.48 (2.84) % | Clearanance [2, 5]: 122 (29.0) mL/min | Volume [2, 5]: 194 (53.2) L | AUCextrap [2, 6]: 0.53 (66.3); % | AUCinf [2, 6]: 6480 (29.3); ng or ng equiv × h/mL | AUClast [2, 6]: 6440 (29.5); ng or ng equiv × h/mL | Cmax [2, 6]: 4480 (18.0); ng or ng equiv/mL | T1/2 (terminal half-life) [2, 6]: 5.86 (35.8); h | Volume [2, 6]: 130 (38.9); L | Volume, ss [2, 6]: 53.2 (20.6); L | AUCextrap [2, 7]: 8.09 (35.4); % | Clearanance [2, 7]: 120 (23.7); mL/min | Volume [2, 7]: 186 (35.4); L | Volume, ss [2, 7]: 98.2 (23.4) L | Tmax ([2]; male, human, plasma, 100 ug, median (min-max), Part 1 (n = 5), [14C]-belumosudil): 0.25 h | half-life ([2]; male, human, plasma, 100 ug, arithmetic mean (standard deviation), Part 1, [14C]-belumosudil, read-out: T1/2 (converted)): 6.15 h | half-life ([2]; male, human, plasma, 100 ug, geometric mean (geometric CV %), Part 1, [14C]-belumosudil, read-out: T1/2 (terminal half-life) (converted)): 5.9 h | AUCextrap [3, 8]: 3.08 (2.16) % | AUCinf [3, 8]: 8490 (2680) ng or ng equiv × h/mL | Clearanance (apparent clearance) [3, 8]: 435 (173) mL/min | F, AUCinf (bioavailability) [3, 9]: 63.8 (15.7)^b % | F, Cmax (bioavailability) [3, 9]: 63.8 (15.7)^b % | AUCextrap [3, 10]: 10.1 (2.79) % | Clearanance [3, 10]: 126 (59.7) mL/min | AUCextrap [3, 11]: 2.46 (92.9); % | AUCinf [3, 11]: 8100 (37.0); ng or ng equiv × h/mL | AUClast [3, 11]: 7850 (39.3); ng or ng equiv × h/mL | Clearanance (apparent clearance) [3, 11]: 412 (37.0); mL/min | Cmax [3, 11]: 1680 (32.1); ng or ng equiv/mL | F, AUCinf (bioavailability) [3, 12]: 62.2 (26.6)^b; % | F, Cmax (bioavailability) [3, 12]: 62.2 (26.6)^b; % | AUCextrap [3, 13]: 9.76 (31.7); % | Clearanance [3, 13]: 118 (46.1); mL/min | half-life ([3]; male, human, plasma, oral, arithmetic mean (standard deviation), Part 2, [14C]-belumosudil 200-mg capsule): 5.39 h | half-life ([3]; male, human, plasma, oral, geometric mean (geometric CV %), Part 2, [14C]-belumosudil 200-mg capsule): 5.11 h | Tmax ([3]; male, human, plasma, oral, median (min-max), Part 2 (n = 5), [14C]-belumosudil 200-mg capsule): 2 h
